Laboratory results: ChEMBL document CHEMBL3046082, “Control of Rice Blast Disease by Submerged Treatment with SSF-126” (J Pestic Sci, 1997)

What was measured:
[1] = tested on: Pyricularia oryzae; experiment: Antifungal activity against Magnaporthe oryzae in fourth-leaf stage of rice plant assessed as appressorial formation at 9 g/a after 24 hr (reference value: 90.4 +/- 5.6%); type: functional
[2] = tested on: Leaf; experiment: Drug level in Oryza sativa (rice) plant leaf at 18 g/a after 10 days; type: ADME; conditions: 240 h
[3] = tested on: Root; experiment: Drug level in Oryza sativa (rice) plant root at 18 g/a up to 42 days; type: ADME; conditions: 1008 h
[4] = tested on: Pyricularia oryzae; experiment: Antifungal activity against Magnaporthe oryzae in fourth-leaf stage of rice plant assessed as spore germination at 36 g/a after 24 hr (reference value: 97.2 +/- 2.7%); type: functional
[5] = tested on: Pyricularia oryzae; experiment: Antifungal activity against Magnaporthe oryzae in fourth-leaf stage of rice plant assessed as spore germination at 9 g/a after 24 hr (reference value: 97.2 +/- 2.7%); type: functional
[6] = tested on: Pyricularia oryzae; experiment: Antifungal activity against Magnaporthe oryzae in fourth-leaf stage of rice plant assessed as appressorial formation at 36 g/a after 24 hr (reference value: 90.4 +/- 5.6%); type: functional
[7] = tested on: Pyricularia oryzae; experiment: Antifungal activity against Magnaporthe oryzae in fourth-leaf stage of rice plant assessed as spore germination at 18 g/a after 24 hr (reference value: 97.2 +/- 2.7%); type: functional
[8] = tested on: Pyricularia oryzae; experiment: Antifungal activity against Magnaporthe oryzae in fourth-leaf stage of rice plant assessed as appressorial formation at 18 g/a after 24 hr (reference value: 90.4 +/- 5.6%); type: functional
[9] = tested on: Leaf; experiment: Drug level in Oryza sativa (rice) plant leaf at 18 g/a up to 42 days; type: ADME; conditions: 1008 h

`CNC(=O)/C(=N\OC)c1ccccc1Oc1ccccc1` showed an Activity [1] of 92.2%, a Drug uptake [2] of 20 ppm and a Drug uptake [3] of under 2 ppm. It also gave an Activity [4] of 96.4%, an Activity [5] of 97.1% and an Activity [6] of 91.9%. The Activity [7] was 96.5%, the Activity [8] was 91.2% and the Drug uptake [9] was under 2 ppm.
